According to US20130012483A1, “NOVEL PHARMACEUTICAL COMPOSITION FOR THE TREATMENT OF NEURODEGENERATIVE OR NEUROVASCULAR DISEASES” (priority 2010, published 2013):

Test system: elderly patients suffering from Alzheimer disease or related disorders (ADRD)
Assay: Before-after clinical study: change in global cognitive performance by Mini-Mental State Examination (MMSE)
Assay type: in vivo, human
Conditions: for Change in MMSE score, mean ± SD (MMSE score after treatment − MMSE score before treatment): between-visits change, oral treatment; for MMSE score (/30 points), mean ± SD after treatment: first follow-up visit, oral vitamin D3 800-3500 IU per day and/or memantine 5-20 mg per day, mean time between visits 0.6±0.4 years
Method: Based on a before-after designed study, we compared the change in global cognitive performance using the Mini-Mental State Examination (MMSE) among elderly patients suffering from Alzheimer disease or related disorders (ADRD).
Three different treatments were administered to these patients: • vitamin D3 alone, • memantine alone, • vitamin D3 in combination with memantine.
All patients suffering from ADRD who were prescribed memantine and/or vitamin D3 with no cerebral vasodilatators and no anticholinesterasics (i.e., donepezil, galantamine or rivastigmine) at the University Memory Center of Angers University Hospital, France and who had at least one follow-up visit, were enrolled in this study.
The MMSE score was used to assess global cognitive performance during the study and was completed at baseline (i.e., before the drug prescription) and during the first follow-up visit. MMSE is a well-established measure of cognitive function in elderly people (see for example Folstein M F, Folstein S E, et al., Mini-Mental State: A practical method for grading the cognitive state of patients for the clinician; Journal of Psychiatric Research 1975; 12: 189-198; or Kalafat L, Hugonot-Diener L, Poitrenaud J., Standardisation et étalonnage français du<<Mini Mental State>>version Greco; Neuropsychol Rev 2003; 13: 209-236). It is a brief, practical screening test for cognitive dysfunction composed of five sections (orientation, registration, attention—calculation, recall, and language). […] Scores range from 30 (unimpaired) to 0 (impaired). The change in MMSE score was used to assess the change in cognitive performance after the introduction of the drug(s).
Subjects were prescribed either vitamin D3 alone, memantine alone, or Vitamin D3 in combination with memantine.
Vitamin D3 was administered orally either daily or monthly. Dosage of vitamin D3 ranges between 800 and 3500 IU per day.
Memantine was administered orally every day at once. Dosage ranges from 5 to 20 mg per day.
Age, gender, the MMSE score at baseline assessment as well as the time between two visits expressed in years (corresponding to the duration of treatment) were used as co-variables.
The subjects' baseline characteristics were summarized using means and standard deviations or frequencies and percentages, as appropriate. First, comparisons between subjects separated into three groups corresponding to the three treatments administered (i.e., vitamin D3 alone, memantine alone and Vitamin D3 in combination with memantine) were performed using the Chi-square test or the Kruskal-Wallis test, as appropriate. To address the problem of multiple comparisons, analyses were completed by a post hoc Bonferonni test.
Second, multiple linear regression analyses (i.e., fully adjusted method) were performed to examine the association between the change in MMSE score (dependent variable) and the use of vitamin D3 in combination with memantine (independent variable), after adjustment for clinical characteristics.
Three models were performed: • first, we examined the between-visits change in MMSE score taking as reference group the subjects using vitamin D3 alone; • second, we performed the same analysis taking as reference group the subjects using memantine alone; and • third, taking as reference group the subjects using vitamin D3 or memantine.

CC12CC3CC(C)(C1)CC(N)(C3)C2 [M., 3,5-dimethyltricyclo[3.3.1.1]decylamine]
Change in MMSE score, mean ± SD (MMSE score after treatment − MMSE score before treatment): −0.0 ± 1.8 points | Change in MMSE score, mean ± SD (MMSE score after treatment − MMSE score before treatment) (listed as memantine): 0.0±1.8 points | MMSE score (/30 points), mean ± SD after treatment: 16.1 ± 5.1 points

C=C1CC[C@H](O)C/C1=C/C=C1\CCC[C@]2(C)[C@@H]([C@H](C)CCCC(C)C)CC[C@@H]12 [V. D3, cholecalciferol]
points lost in MMSE score on average (between visits, printed as a loss): 0.6±3.1 points | Change in MMSE score, mean ± SD (MMSE score after treatment − MMSE score before treatment): −0.6 ± 3.1 points | MMSE score (/30 points), mean ± SD after treatment: 17.7 ± 6.5 points
